Test results taken from patent EP2608671B1, “COMPOUNDS FOR TREATMENT OF CANCER” (Gtx, Inc., priority 2010, dated 2012).
Where two headings read alike, the source gives them in different places.

Tests used:
B16-F1 = assay: SRB cell growth inhibition (cytotoxicity) assay; type: cell-based, mouse
Text: (§1) The only compounds which belong to the invention are the ones falling under the scope of formula (XI).

A375 = assay: SRB cell growth inhibition (cytotoxicity) assay; type: cell-based, human
PC-3 = assay: cells
Text: as §1
Cells were stained with SRB solution.
Cells. […] Cells between the third and fifth passages were used for experiments.
Cell growth inhibition studies. […] Cells were stained with sulphorhodamine B (SRB) solution.

OVCAR-8 = assay: SRB growth inhibition, MDR model parent line; type: cell-based, human
NCI/ADR-RES = assay: SRB growth inhibition, P-gp over-expressing MDR line; type: cell-based, human; settings: for Resistance factor: 5760 min
Bovine brain tubulin = assay: In vitro tubulin polymerization assay; type: biochemical; settings: 10 µM; for tubulin polymerization inhibited: 20 min incubation, compared to vehicle
Text: (§2) In Vitro Tubulin Polymerization Assay.
as §2
In vitro microtubule polymerization assay.

DU 145 [1] = assay: cells; settings: Homo sapiens, DU-145, 96 h
LNCaP [2] = assay: cells; settings: Homo sapiens, 96 h, read-out: IC50 ± SEM (nM), LNCaP
PPC-1 [3] = assay: cells; settings: Homo sapiens, PPC-1, 96 h, read-out: IC50 ± SEM (nM), PPC-1
WM-164 = assay: SRB cell growth inhibition (cytotoxicity) assay; type: cell-based, human; settings: WM164 melanoma cells, 48 h, SRB; read-out: IC50 ± SEM (nM) WM164
[4] = system: melanoma cell lines (A375, WM-164, B16-F1) and prostate cancer cell lines (LNCaP, DU 145, PC-3, PPC-1); assay: SRB cytotoxicity, melanoma and prostate cell panel (averages); type: cell-based
Text: as §1

DU 145 [5] = system: DU 145
LNCaP [6] = system: LNCaP
PPC-1 [7] = system: PPC-1
[8] = system: A375 human melanoma xenograft; assay: In vivo antitumor efficacy, A375 melanoma xenograft; parameters: species or system mouse; settings: Melanoma (A375) xenograft; for % T/C: 34 days
Experimental: DTIC at 60 mg/kg was used as a positive control again.
(§3) PC-3 and A375 tumor xenograft studies.
(§4) In vivo antitumor activity [tumor growth inhibition (% T/C), tumor growth delay (T-C value), and tumor cell kill (total log cell kill)].

[9] = system: PC-3 prostate tumor xenograft; assay: In vivo antitumor efficacy, PC-3 xenograft; parameters: species or system mouse; settings: Prostate (PC-3) xenograft, 21 days
Text: as §3, §4

[10] = Mus musculus, B16-F1, read-out: IC50 ± SEM (nM), B16-F1
[11] = Homo sapiens, A-375, 96 h, read-out: IC50 ± SEM (nM), A375
[12] = Homo sapiens, PC-3, 96 h, read-out: IC50 ± SEM (nM), PC-3
[13] = Homo sapiens, OVCAR-8, Table 5A, read-out: IC50 (nM), OVCAR-8
[14] = Homo sapiens, NCI/ADR-RES, P-gp over-expressed MDR cell line, Table 5A, read-out: IC50 (nM), NCI/ADR-RES
[15] = read-out: IC50 ± SEM (nM), DU 145
[16] = Table 21, Melanoma, n = 3, read-out: IC50 ± SEM (nM) B16-F1
[17] = Table 21, Melanoma, n = 3, read-out: IC50 ± SEM (nM) A375
[18] = read-out: IC50 ± SEM (nM) PC-3, Table 21, Prostate, n = 3
[19] = Table 21, Ovarian, n = 3, read-out: IC50 ± SEM (nM) OVCAR-8
[20] = read-out: IC50 ± SEM (nM) LNCaP, Table 21, Prostate, n = 3
[21] = read-out: IC50 ± SEM (nM) Dn-145, Table 21, Prostate, n = 3
[22] = read-out: IC50 ± SEM (nM) PPC-1, Table 21, Prostate, n = 3

In the case of `COc1cc(C(=O)c2csc(Nc3ccccc3)n2)cc(OC)c1OC` [5a, (2-(Phenylamino)thiazol-4-yl)(3,4,5-trimethoxyphenyl)methanone], the IC50 (B16-F1; [10]) is reported as 65 ± 12 nM, the IC50 (A375; [11]) is reported as 45 ± 8 nM and the IC50 (PC-3; [12]) is reported as 57 ± 3 nM. It also gave an IC50 (OVCAR-8; [13]) of 46 ± 6 nM, an IC50 (NCI/ADR-RES; [14]) of 27 nM and a Resistance factor (NCI/ADR-RES; NCI/ADR-RES vs OVCAR-8) of 0.6. For the same compound, the tubulin polymerization inhibited (Bovine brain tubulin) was 78%, the IC50 (DU 145 [1]; [15]) was 70 ± 4 nM and the IC50 (LNCaP [2]) was 51 ± 1 nM. The IC50 (PPC-1 [3]) was 54 ± 1 nM.

For `Cc1ccc(-c2nc(C(=O)c3ccc(F)cc3)c[nH]2)cc1` [12db, (4-fluorophenyl)(2-(p-tolyl)-1H-imidazol-4-yl)methanone], the IC50 (A375; Homo sapiens, A-375, A375 melanoma cells, 48 h, SRB, read-out: IC50 ± SEM (nM) A375) was 143 ± 13 nM, the IC50 (PC-3; [12]) was 56 ± 3 nM and the “inhibition of tubulin polymerization” value (Bovine brain tubulin; 15 min, Figure 22) was ~80%. It also gave an IC50 (DU 145 [1]; read-out: IC50 ± SEM (nM) Du 145) of 78 ± 5 nM, an IC50 (LNCaP [2]) of 45 ± 2 nM and an IC50 (PPC-1 [3]) of 34 ± 1 nM.

`O=C(c1ccc(F)cc1)c1c[nH]c(-c2ccc(O)cc2)n1` [12kb] was tested, and the IC50 (B16-F1; B16-F1 melanoma cells, 48 h, SRB, read-out: IC50 ± SEM (nM) B16-F1) was > 10000 nM, the IC50 (WM-164) was > 10000 nM and the IC50 (PC-3; read-out: IC50 ± SEM (nM) PC-3, PC-3 prostate cancer cells, 96 h, SRB) was > 10000 nM. The IC50 ([4]; ABI compounds, Tables 11-13, read-out: IC50 (average over cell lines)) was 33000 nM, the IC50 (DU 145 [5]; read-out: IC50 ± SEM (nM) Du 145, Du 145 prostate cancer cells, 96 h, SRB) was > 10000 nM and the IC50 (LNCaP [6]; read-out: IC50 ± SEM (nM) LNCaP, LNCaP prostate cancer cells, 96 h, SRB) was 10000 nM. The IC50 (PPC-1 [7]; read-out: IC50 ± SEM (nM) PPC-1, PPC-1 prostate cancer cells, 96 h, SRB) was > 10000 nM.

Compound `COc1cc(C(=O)c2csc(-c3ccc4[nH]ccc4c3)n2)cc(OC)c1OC` [66a] has an IC50 (B16-F1; [10]) of 25 ± 13 nM, an IC50 (A375; [11]) of 8 ± 1 nM and an IC50 (PC-3; [12]) of 7 nM. For the same compound, the IC50 (OVCAR-8; [13]) was 10 ± 3 nM, the IC50 (NCI/ADR-RES; [14]) was 4 ± 2 nM and the Resistance factor (NCI/ADR-RES; NCI/ADR-RES vs OVCAR-8) was 0.4. The IC50 ([4]; Prostate cell, summary of Tables 2, 3, 21, read-out: IC50 range over tested melanoma and prostate cell lines) was 7 to 25 nM, the tubulin polymerization inhibited (Bovine brain tubulin) was 81% and the IC50 (DU 145 [1]; [15]) was 13 nM. For the same compound, the IC50 (LNCaP [2]) was 10 nM and the IC50 (PPC-1 [3]) was 8 nM.

Compound `COc1cc(C(=O)c2csc(-c3ccc(F)cc3)n2)cc(OC)c1OC` [SMART-F] has an IC50 (B16-F1; [16]) of 43 ± 21 nM, an IC50 (A375; [17]) of 33 ± 14 nM and an IC50 (PC-3; [18]) of 13 ± 1 nM. For the same compound, the IC50 (OVCAR-8; [19]) was 34 ± 3 nM, the “Median time to reach 600 mm^3.” value ([8]; 15 mg/kg i.p.) was 29 days and the “% T/C” value ([8]; 15 mg/kg i.p.) was 28%. For the same compound, the “Total log cell kill” value ([8]; 15 mg/kg i.p., doubling time 4.6 d) was 0.7, the “% T/C” value ([9]; 5 mg/kg i.p.) was 21% and the “% T/C” value ([9]; 15 mg/kg i.p.) was 24%. For the same compound, the IC50 (LNCaP [6]; [20]) was 6 ± 1 nM.

In the case of `COc1cc(C(=O)c2csc(-c3ccccc3)n2)cc(OC)c1OC` [SMART-H], the IC50 (B16-F1; [16]) is reported as 55 ± 5 nM, the IC50 (A375; [17]) is reported as 28 ± 5 nM and the IC50 (PC-3; [18]) is reported as 21 ± 1 nM. The IC50 (OVCAR-8; [19]) was 35 ± 2 nM, the “Median time to reach 600 mm^3.” value ([8]; 20 mg/kg i.p.) was 28 days and the “% T/C” value ([8]; 20 mg/kg i.p.) was 30%. The “% T/C” value ([9]; 5 mg/kg i.p.) was 29%, the “% T/C” value ([9]; 15 mg/kg i.p.) was 4% and the IC50 (DU 145 [5]; [21]) was 71 ± 4 nM. For the same compound, the IC50 (LNCaP [6]; [20]) was 28 ± 4 nM and the IC50 (PPC-1 [7]; [22]) was 43 ± 5 nM.

Compound `COc1cc(C(=O)c2csc(-c3ccc(O)cc3)n2)cc(OC)c1OC` [SMART-OH] has an IC50 (B16-F1; [16]) of 113 ± 6 nM, an IC50 (A375; [17]) of 93 ± 11 nM and an IC50 (PC-3; [18]) of 87 ± 5 nM. For the same compound, the IC50 (OVCAR-8; [19]) was 110 ± 8 nM, the “Resistance factor” value (NCI/ADR-RES; NCI/ADR-RES relative to parent OVCAR-8) was 0.4 and the IC50 (NCI/ADR-RES; Table 21, Ovarian, n = 3, read-out: IC50 ± SEM (nM) NCI/ADR-RES) was 45 ± 5 nM. The “% T/C” value ([9]; 50 mg/kg i.p.) was 34%, the IC50 (DU 145 [5]; [21]) was 116 ± 14 nM and the IC50 (LNCaP [6]; [20]) was 103 ± 9 nM. The IC50 (PPC-1 [7]; [22]) was 76 ± 2 nM.

Work on `COc1cc(C(=O)c2csc(-c3ccccc3)n2)cc(OC)c1OCCN1C(=O)c2ccccc2C1=O` [compound 20] yielded an IC50 (B16-F1; Table 6, read-out: IC50 ±SEM (nM), B16-F1) of 42 nM, an IC50 (A375; Table 6, read-out: IC50 ±SEM (nM), A375) of 38 nM and an IC50 (PC-3; read-out: IC50 ±SEM (nM), PC-3, Table 6) of 73 nM. The IC50 (DU 145 [5]; read-out: IC50 ±SEM (nM), DU 145, Table 6) was 121 nM, the IC50 (LNCaP [6]; read-out: IC50 ±SEM (nM), LNCaP, Table 6) was 65 nM and the IC50 (PPC-1 [7]; read-out: IC50 ±SEM (nM), PPC-1, Table 6) was 73 nM.
